In patent publication US10308643B2, “Heterocyclic compound” (Takeda Pharmaceutical Company Limited, priority 2015, dated 2019):

Key:
Type in all cases: biochemical
HDAC9 enzyme = biological target: T1, HDAC9 enzyme (Homo sapiens, UniProt Q9UKV0); test: HDAC9 Enzyme Inhibitory Assay (HDAC-Glo class IIa); settings: 1 μM test compound, wells without enzyme = 100% inhibition; for inhibition at 1 µM: read-out: HDAC9 inhibitory rate (%) (1 μM)
T1 construct: transducing full length HDAC9 gene into Sf-9 insect cells; made in house; host or cells: Sf-9 insect cells
T1 sequence (Q9UKV0 whole entry, species assumed): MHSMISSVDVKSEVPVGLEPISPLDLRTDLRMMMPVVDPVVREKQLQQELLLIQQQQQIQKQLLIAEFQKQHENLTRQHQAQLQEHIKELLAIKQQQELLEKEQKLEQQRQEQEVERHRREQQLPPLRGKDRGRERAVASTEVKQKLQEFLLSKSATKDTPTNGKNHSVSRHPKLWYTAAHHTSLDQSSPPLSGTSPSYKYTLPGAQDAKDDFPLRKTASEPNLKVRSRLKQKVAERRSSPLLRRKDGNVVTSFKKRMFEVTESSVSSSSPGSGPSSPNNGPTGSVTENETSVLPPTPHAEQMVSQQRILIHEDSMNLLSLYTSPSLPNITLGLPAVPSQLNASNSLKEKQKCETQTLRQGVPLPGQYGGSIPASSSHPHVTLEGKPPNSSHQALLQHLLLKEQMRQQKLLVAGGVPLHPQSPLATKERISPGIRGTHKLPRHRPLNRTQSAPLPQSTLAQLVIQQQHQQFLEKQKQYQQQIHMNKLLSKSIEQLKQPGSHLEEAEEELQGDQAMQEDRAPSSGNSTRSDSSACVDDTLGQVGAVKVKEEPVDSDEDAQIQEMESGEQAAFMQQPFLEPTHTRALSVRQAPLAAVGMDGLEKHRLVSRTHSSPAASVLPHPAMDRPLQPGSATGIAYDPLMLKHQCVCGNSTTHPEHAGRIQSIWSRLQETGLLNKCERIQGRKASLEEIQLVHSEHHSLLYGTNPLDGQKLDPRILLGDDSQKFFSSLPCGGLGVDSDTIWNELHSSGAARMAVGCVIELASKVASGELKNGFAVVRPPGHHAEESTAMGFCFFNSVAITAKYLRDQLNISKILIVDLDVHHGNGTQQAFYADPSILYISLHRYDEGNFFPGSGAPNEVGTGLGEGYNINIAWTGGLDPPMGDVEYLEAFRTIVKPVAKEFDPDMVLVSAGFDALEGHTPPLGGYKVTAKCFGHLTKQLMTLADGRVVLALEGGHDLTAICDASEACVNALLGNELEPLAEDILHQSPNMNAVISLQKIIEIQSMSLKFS
Outline: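 Full-length human HDAC9 from Sf-9 cells, Ni-NTA purified, preincubated with compound for 60 min at room temperature in Tris-HCl pH 7.5 buffer (MgCl2, KCl, NaCl, glutathione, Tween-20). HDAC-Glo class IIa substrate-developer added; luminescence read after 20 min, with no-enzyme wells defining 100% inhibition.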

HDAC6 enzyme = biological target: T2, HDAC6 enzyme (Homo sapiens, UniProt Q9UBN7); test: HDAC1/6 Enzyme Inhibitory Assay (HDAC-Glo I/II Assay kit), HDAC6; settings: 1 μM test compound, wells without enzyme = 100% inhibition; for inhibition at 1 µM: read-out: HDAC6 inhibitory rate (%) (1 μM)
T2 construct: transducing full length HDAC1 and HDAC6 genes into Sf-9 insect cells; GST; purchased SignalChem; host or cells: Sf-9 insect cells
T2 sequence (Q9UBN7 1-1215): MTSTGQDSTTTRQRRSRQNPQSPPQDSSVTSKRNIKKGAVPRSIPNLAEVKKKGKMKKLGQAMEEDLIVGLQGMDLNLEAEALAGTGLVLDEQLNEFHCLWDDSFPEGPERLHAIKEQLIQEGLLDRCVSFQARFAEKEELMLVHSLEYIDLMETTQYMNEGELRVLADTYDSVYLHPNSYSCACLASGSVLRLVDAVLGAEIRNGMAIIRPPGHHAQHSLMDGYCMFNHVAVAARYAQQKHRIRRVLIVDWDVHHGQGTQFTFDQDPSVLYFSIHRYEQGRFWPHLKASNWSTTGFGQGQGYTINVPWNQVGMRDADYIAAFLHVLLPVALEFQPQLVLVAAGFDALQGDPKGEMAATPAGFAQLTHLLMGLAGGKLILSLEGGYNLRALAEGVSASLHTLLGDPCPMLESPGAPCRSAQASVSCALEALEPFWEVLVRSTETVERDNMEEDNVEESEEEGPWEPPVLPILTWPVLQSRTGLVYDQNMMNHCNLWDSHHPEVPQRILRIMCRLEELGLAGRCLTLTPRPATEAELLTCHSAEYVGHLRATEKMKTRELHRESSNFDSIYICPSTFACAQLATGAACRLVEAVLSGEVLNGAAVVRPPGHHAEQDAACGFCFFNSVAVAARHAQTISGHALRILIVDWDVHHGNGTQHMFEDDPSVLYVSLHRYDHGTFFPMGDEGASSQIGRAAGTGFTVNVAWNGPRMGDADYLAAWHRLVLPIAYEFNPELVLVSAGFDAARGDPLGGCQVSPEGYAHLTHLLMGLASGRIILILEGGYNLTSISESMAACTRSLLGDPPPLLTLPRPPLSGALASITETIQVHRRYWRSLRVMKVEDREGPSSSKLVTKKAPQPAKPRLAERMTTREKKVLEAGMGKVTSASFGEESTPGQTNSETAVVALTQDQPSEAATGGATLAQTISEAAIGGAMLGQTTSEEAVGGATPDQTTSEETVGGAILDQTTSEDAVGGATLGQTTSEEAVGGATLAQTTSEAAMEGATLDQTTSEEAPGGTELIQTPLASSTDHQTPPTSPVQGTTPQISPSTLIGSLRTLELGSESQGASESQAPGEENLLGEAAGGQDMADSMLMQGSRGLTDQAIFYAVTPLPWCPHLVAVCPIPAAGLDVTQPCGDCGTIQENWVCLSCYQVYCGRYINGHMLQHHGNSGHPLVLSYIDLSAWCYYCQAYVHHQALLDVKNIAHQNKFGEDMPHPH
Outline: (§1)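 Full-length human HDAC1 or HDAC6, expressed in Sf-9 cells and GST-purified, was preincubated with compound for 60 min at room temperature in Tris-HCl pH 7.5 buffer with MgCl2, KCl, NaCl, glutathione and Tween-20. HDAC-Glo substrate-developer was then added, and luminescence was read after 20 min. Inhibition was referenced to no-enzyme wells as 100%.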

HDAC1 enzyme = biological target: T3, HDAC1 enzyme (Homo sapiens, UniProt Q13547); test: HDAC1/6 Enzyme Inhibitory Assay (HDAC-Glo I/II Assay kit), HDAC1; settings: 1 μM test compound, wells without enzyme = 100% inhibition; for inhibition at 1 µM: read-out: HDAC1 inhibitory rate (%) (1 μM)
T3 construct: transducing full length HDAC1 and HDAC6 genes into Sf-9 insect cells; GST; purchased SignalChem; host or cells: Sf-9 insect cells
T3 sequence (Q13547 whole entry): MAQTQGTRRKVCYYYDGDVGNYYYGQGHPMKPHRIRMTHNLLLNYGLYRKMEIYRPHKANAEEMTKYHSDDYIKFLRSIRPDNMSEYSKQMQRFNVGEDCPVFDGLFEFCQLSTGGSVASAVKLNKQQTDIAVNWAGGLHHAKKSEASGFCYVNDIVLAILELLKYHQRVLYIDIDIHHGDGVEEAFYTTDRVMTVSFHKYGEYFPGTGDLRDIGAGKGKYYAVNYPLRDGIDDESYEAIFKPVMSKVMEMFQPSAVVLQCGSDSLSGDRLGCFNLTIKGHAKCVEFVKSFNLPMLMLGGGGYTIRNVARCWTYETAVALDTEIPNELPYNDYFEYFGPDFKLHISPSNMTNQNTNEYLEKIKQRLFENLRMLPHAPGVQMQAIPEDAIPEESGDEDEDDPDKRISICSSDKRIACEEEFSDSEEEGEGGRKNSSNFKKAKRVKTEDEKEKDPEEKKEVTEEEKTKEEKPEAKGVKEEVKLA
Outline: as §1

SMILES: O=C(CN1CCCC1=O)N[C@@H]1CCCC[C@H]1N1Cc2ccc(-c3noc(C(F)(F)F)n3)cc2C1=O [Example 121, 2-(2-oxopyrrolidin-1-yl)-N-((1R,2R)-2-(1-oxo-6-(5-(trifluoromethyl)-1,2,4-oxadiazol-3-yl)-1,3-dihydro-2H-isoindol-2-yl)cyclohexyl)acetamide]
- inhibition at 1 µM (HDAC9 enzyme): 40%
- inhibition at 1 µM (HDAC6 enzyme): 89%
- inhibition at 1 µM (HDAC1 enzyme): 3%

SMILES: N#CC1(C(=O)N[C@@H]2CCCC[C@H]2N2Cc3ccc(-c4noc(C(F)(F)F)n4)cc3C2=O)CC1 [Example 122, 1-cyano-N-((1R,2R)-2-(1-oxo-6-(5-(trifluoromethyl)-1,2,4-oxadiazol-3-yl)-1,3-dihydro-2H-isoindol-2-yl)cyclohexyl) cyclopropanecarboxamide]
- inhibition at 1 µM (HDAC9 enzyme): 67%
- inhibition at 1 µM (HDAC6 enzyme): 97%
- inhibition at 1 µM (HDAC1 enzyme): 6%

SMILES: CN1CCC(C(=O)N[C@@H]2CCCC[C@H]2N2Cc3ccc(-c4noc(C(F)(F)F)n4)cc3C2=O)CC1 [Example 123, 1-methyl-N-((1R,2R)-2-(1-oxo-6-(5-(trifluoromethyl)-1,2,4-oxadiazol-3-yl)-1,3-dihydro-2H-isoindol-2-yl)cyclohexyl)piperidine-4-carboxamide]
- inhibition at 1 µM (HDAC9 enzyme): 5%
- inhibition at 1 µM (HDAC6 enzyme): 56%
- inhibition at 1 µM (HDAC1 enzyme): -4%

SMILES: CN1CCCCC1C(=O)N[C@@H]1CCCC[C@H]1N1Cc2ccc(-c3noc(C(F)(F)F)n3)cc2C1=O (stereo partly drawn) [Example 124, 1-methyl-N-((1R,2R)-2-(1-oxo-6-(5-(trifluoromethyl)-1,2,4-oxadiazol-3-yl)-1,3-dihydro-2H-isoindol-2-yl)cyclohexyl)piperidine-2-carboxamide]
- inhibition at 1 µM (HDAC9 enzyme): 32%
- inhibition at 1 µM (HDAC6 enzyme): 96%
- inhibition at 1 µM (HDAC1 enzyme): 3%

SMILES: O=C(N[C@@H]1CCCC[C@H]1N1Cc2ccc(-c3noc(C(F)(F)F)n3)cc2C1=O)C1CC(F)(F)C1 [Example 125, 3,3-difluoro-N-((1R,2R)-2-(1-oxo-6-(5-(trifluoromethyl)-1,2,4-oxadiazol-3-yl)-1,3-dihydro-2H-isoindol-2-yl)cyclohexyl) cyclobutanecarboxamide]
- inhibition at 1 µM (HDAC9 enzyme): 55%
- inhibition at 1 µM (HDAC6 enzyme): 99%
- inhibition at 1 µM (HDAC1 enzyme): 11%

SMILES: O=C(CCC(F)F)N[C@@H]1CCCC[C@H]1N1Cc2ccc(-c3noc(C(F)(F)F)n3)cc2C1=O [Example 126, 4,4-difluoro-N-((1R,2R)-2-(1-oxo-6-(5-(trifluoromethyl)-1,2,4-oxadiazol-3-yl)-1,3-dihydro-2H-isoindol-2-yl)cyclohexyl)butanamide]
- inhibition at 1 µM (HDAC9 enzyme): 59%
- inhibition at 1 µM (HDAC6 enzyme): 100%
- inhibition at 1 µM (HDAC1 enzyme): 10%

SMILES: O=C(N[C@@H]1CCCC[C@H]1N1Cc2ccc(-c3noc(C(F)(F)F)n3)cc2C1=O)C1COC1 [Example 127, N-((1R,2R)-2-(1-oxo-6-(5-(trifluoromethyl)-1,2,4-oxadiazol-3-yl)-1,3-dihydro-2H-isoindol-2-yl)cyclohexyl)oxetane-3-carboxamide]
- inhibition at 1 µM (HDAC9 enzyme): 47%
- inhibition at 1 µM (HDAC6 enzyme): 99%
- inhibition at 1 µM (HDAC1 enzyme): 5%

SMILES: O=C1CC[C@@H](C(=O)N[C@@H]2CCCC[C@H]2N2Cc3ccc(-c4noc(C(F)(F)F)n4)cc3C2=O)N1 [Example 128, 5-oxo-N-((1R,2R)-2-(1-oxo-6-(5-(trifluoromethyl)-1,2,4-oxadiazol-3-yl)-1,3-dihydro-2H-isoindol-2-yl)cyclohexyl)-L-prolinamide]
- inhibition at 1 µM (HDAC9 enzyme): 39%
- inhibition at 1 µM (HDAC6 enzyme): 92%
- inhibition at 1 µM (HDAC1 enzyme): -3%

SMILES: O=C(N[C@@H]1CCCC[C@H]1N1Cc2ccc(-c3noc(C(F)(F)F)n3)cc2C1=O)[C@H]1CCCO1 [Example 129, (2R)-N-((1R,2R)-2-(1-oxo-6-(5-(trifluoromethyl)-1,2,4-oxadiazol-3-yl)-1,3-dihydro-2H-isoindol-2-yl)cyclohexyl)tetrahydrofuran-2-carboxamide]
- inhibition at 1 µM (HDAC9 enzyme): 45%
- inhibition at 1 µM (HDAC6 enzyme): 100%
- inhibition at 1 µM (HDAC1 enzyme): 9%

SMILES: O=C1C[C@H](C(=O)N[C@@H]2CCCC[C@H]2N2Cc3ccc(-c4noc(C(F)(F)F)n4)cc3C2=O)CN1 [Example 130, (3S)-5-oxo-N-((1R,2R)-2-(1-oxo-6-(5-(trifluoromethyl)-1,2,4-oxadiazol-3-yl)-1,3-dihydro-2H-isoindol-2-yl)cyclohexyl)pyrrolidine-3-carboxamide]
- inhibition at 1 µM (HDAC9 enzyme): 30%
- inhibition at 1 µM (HDAC6 enzyme): 86%
- inhibition at 1 µM (HDAC1 enzyme): 0%

SMILES: O=C(N[C@@H]1CCCC[C@H]1N1Cc2ccc(-c3noc(C(F)(F)F)n3)cc2C1=O)C1CC1F (stereo partly drawn) [Example 132, 2-fluoro-N-((1R,2R)-2-(1-oxo-6-(5-(trifluoromethyl)-1,2,4-oxadiazol-3-yl)-1,3-dihydro-2H-isoindol-2-yl)cyclohexyl)cyclopropanecarboxamide]
- inhibition at 1 µM (HDAC9 enzyme): 55%
- inhibition at 1 µM (HDAC6 enzyme): 99%
- inhibition at 1 µM (HDAC1 enzyme): 5%

SMILES: O=C(N[C@@H]1CCCC[C@H]1N1Cc2ccc(-c3noc(C(F)(F)F)n3)cc2C1=O)C1CCCCCO1 (stereo partly drawn) [Example 133, N-((1R,2R)-2-(1-oxo-6-(5-(trifluoromethyl)-1,2,4-oxadiazol-3-yl)-1,3-dihydro-2H-isoindol-2-yl)cyclohexyl)oxepane-2-carboxamide]
- HDAC9 inhibitory rate (%) (1 μM) (HDAC9 enzyme): 38%
- HDAC6 inhibitory rate (%) (1 μM) (HDAC6 enzyme; 1 µM): 99%
- HDAC1 inhibitory rate (%) (1 μM) (HDAC1 enzyme; 1 µM): 9%

SMILES: O=C1c2cc(-c3noc(C(F)(F)F)n3)ccc2CN1[C@@H]1CCCC[C@H]1NC(=O)C1(c2ccccc2)COC1 [Example 134, N-((1R,2R)-2-(1-oxo-6-(5-(trifluoromethyl)-1,2,4-oxadiazol-3-yl)-1,3-dihydro-2H-isoindol-2-yl)cyclohexyl)-3-phenyloxetane-3-carboxamide]
- inhibition at 1 µM (HDAC9 enzyme): 36%
- inhibition at 1 µM (HDAC6 enzyme): 99%
- inhibition at 1 µM (HDAC1 enzyme): -5%

SMILES: CCC1(C(=O)N[C@@H]2CCCC[C@H]2N2Cc3ccc(-c4noc(C(F)(F)F)n4)cc3C2=O)COC1 [Example 138, 3-ethyl-N-((1R,2R)-2-(1-oxo-6-(5-(trifluoromethyl)-1,2,4-oxadiazol-3-yl)-1,3-dihydro-2H-isoindol-2-yl)cyclohexyl)oxetane-3-carboxamide]
- inhibition at 1 µM (HDAC9 enzyme): 55%
- inhibition at 1 µM (HDAC6 enzyme): 97%
- inhibition at 1 µM (HDAC1 enzyme): 2%

SMILES: O=C(N[C@@H]1CCCC[C@H]1N1Cc2ccc(-c3noc(C(F)(F)F)n3)cc2C1=O)N1CCOCC1 [Example 139, N-((1R,2R)-2-(1-oxo-6-(5-(trifluoromethyl)-1,2,4-oxadiazol-3-yl)-1,3-dihydro-2H-isoindol-2-yl)cyclohexyl)morpholine-4-carboxamide]
- inhibition at 1 µM (HDAC9 enzyme): 25%
- inhibition at 1 µM (HDAC6 enzyme): 98%
- inhibition at 1 µM (HDAC1 enzyme): 5%

SMILES: CC(C)(C)OC(=O)N[C@@H]1CCC[C@H]1N1Cc2ccc(-c3noc(C(F)(F)F)n3)cc2C1=O [Example 140, tert-butyl ((1R,2R)-2-(1-oxo-6-(5-(trifluoromethyl)-1,2,4-oxadiazol-3-yl)-1,3-dihydro-2H-isoindol-2-yl)cyclopentyl)carbamate]
- inhibition at 1 µM (HDAC9 enzyme): 41%
- inhibition at 1 µM (HDAC6 enzyme): 39%
- inhibition at 1 µM (HDAC1 enzyme): 27%

SMILES: CC(C)(C)OC(=O)N[C@H]1CCC[C@@H]1N1Cc2ccc(-c3noc(C(F)(F)F)n3)cc2C1=O [Example 141, tert-butyl ((1S,2S)-2-(1-oxo-6-(5-(trifluoromethyl)-1,2,4-oxadiazol-3-yl)-1,3-dihydro-2H-isoindol-2-yl)cyclopentyl)carbamate]
- inhibition at 1 µM (HDAC9 enzyme): 43%
- inhibition at 1 µM (HDAC6 enzyme): 42%
- inhibition at 1 µM (HDAC1 enzyme): 28%
